Results published in US20030096264A1, “Multi-parameter high throughput screening assays (MPHTS)” (Psychiatric Genomics, Inc., priority 2001, published 2003).

Legend:
rat hippocampus = test: In vivo expression profile in hippocampus of rats treated with valproate; conditions: three weeks
Description: Specifically, in these experiments rats were treated with valproate, and gene expression levels in the hippocampus of each rat were measured for a plurality of different genes.
In more detail, twenty rats were divided into two groups, containing ten individuals each. One group of ten rats was used as the control group, whereas the other group functioned as the experimental group. Each rat in the experimental group was injected twice daily with 250 mg valproate for each kilogram of the rat's body mass. Each rat in the control group was similarly injected, but with a vehicle that contained no active ingredient. After three weeks dosing, the rats were sacrificed and their brains removed. Each rat's brain was divided in half. The hippocampus was then removed from each half and flash frozen. The half hippocampus tissue from the rats in each group was combined and total RNA was extracted from the tissue using TriReagent (Invitrogen Corp., Carlsbad Calif.) following the manufacturer's instructions. mRNA was purified with Oligotext (Qiagen Inc., Valencia Calif.) following the manufacturer's recommended protocol. mRNA quality and concentration was determined using the Agilent Bioanalyzer.
For expression profile analysis, mRNA from the pooled tissues of the control group was measured with Cy3 dye, and mRNA from the pooled tissues of the experimental group was measured with Cy5 dye. The labeled probes were then mixed and hybridized to a Rat Tox3 microarray (Incyte Genomics, Palo Alto Calif.). The relative signal intensity from each fluorescent dye was measured for each element (i.e., for each “gene”) on the microarray, normalized for differences, and the relative difference in expression level determined.
The relative differences in expression levels for various genes are plotted in FIG. 4. Specifically, each point on the plot represents a gene whose expression level was measured in both the experimental and control groups. Each point's position along the horizontal axis indicates the relative Cy3 signal intensity measured for that gene and reflects, therefore, the gene's expression in rats that were not treated with valproate. A point's position along the vertical axis indicates the relative Cy5 signal intensity measured for the corresponding gene, reflecting the gene's expression in the hippocampus of rats that were treated with valproate. […] By contrast, changes by at least a factor of 1.5 (i.e., θ≧1.5) indicate significant changes in expression in response to the valproate treatment (identified using a Rat Toxicology array from Incyte, Palo Alto, Calif.). These genes are listed in Table 5, below, along with GenBank Accession number for those genes. Again, a cDNA sequence for each gene listed in Table 5 is also provided in the accompanying Sequence Listing, and its sequence identifier is specified in Table 5 along with the GenBank Accession number.

NBFL cell line = test: RT-PCR validation of differential expression in NBFL cells treated with valproate; assay type: cell-based, human; conditions: valproate treated vs untreated, normalized to GAPDH
Description: To validate differential expression measurements that were obtained using microarrays, expression levels were also measured using a reverse transcription polymerase chain reaction (RT-PCR) assay for five genes having the highest expression ratio in Table 3: nidogen (SEQ ID NO:25; σ=1.7), silver (SEQ ID NO:26; σ=1.6), dopamine β-hydroxylase (SEQ ID NO:53; σ=-1.7), dopa decarboxylase (SEQ ID NO:54; σ=−2) and chromogranin B (SEQ ID NO:55; σ=−2.1). These RT-PCR experiments were performed according to routine methods that are known in 10 the art. Briefly, RNA from the NBFL cell line treated with or without valproate was primed with oligo-dT and reverse transcribed. The resultant cDNA was subjected to either 25 or 30 rounds of PCR amplification, depending on the absolute expression level of the gene tested. The amount of PCR product generated from each sample was normalized to the amount of GAPDH amplified from each sample and a fold-change relative to valproate treatment was calculated. β-actin was used as an additional control.
The results from these experiments are shown graphically in FIG. 3. As expected, no change in β-actin (B-ACT) expression was detected (+/− one-fold) when cells were treated with valproate. However, a greater than 2-fold change in expression levels was measured for each of the five other genes tested: nidogoen (NID), silver (SIL), dopamine β-hydroxylase (DBH), dopa decarboxylase (DDC) and chromogranin B (CG-B).

## CCCC(CCC)C(=O)O [valproate]
Rat hippocampus; 250 mg/kg twice daily, AAC31805 SEQ ID NO: 85
  Φ: pol polyprotein: 1.9
Rat hippocampus; 250 mg/kg twice daily, AAD34078 SEQ ID NO: 89
  Φ: CGI-83 protein: 1.9
Rat hippocampus; 250 mg/kg twice daily, AAD34081 SEQ ID NO: 88
  Φ: CGI-86 protein: 1.9
Rat hippocampus; 250 mg/kg twice daily, AB008110 SEQ ID NO: 63
  Φ: Rat RT1-DOb gene, partial cds.: 2.4
Rat hippocampus; 250 mg/kg twice daily, AC002315 SEQ ID NO: 96
  Φ: Mouse BAC-146N21 Chromosome X contains iduronate-2-sulfatase gene; complete sequence.: 1.8
Rat hippocampus; 250 mg/kg twice daily, AC005743 SEQ ID NO: 62
  Φ: Mouse chromosome unknown clone rp21-657p21 strain 129S6/SvEvTac, complete sequence.: 2.5
Rat hippocampus; 250 mg/kg twice daily, AC007665 SEQ ID NO: 75
  Φ: Mouse chromosome 18 clone mgsriii-pl-3084 strain RIII Fibroblast cell line C 127, complete sequence.: 2.1
Rat hippocampus; 250 mg/kg twice daily, AC012302 SEQ ID NO: 87
  Φ: Mouse chromosome 10, clone RP21-247L16, complete sequence.: 1.9
Rat hippocampus; 250 mg/kg twice daily, AC020967 SEQ ID NO: 57
  Φ: Mouse chromosome 18 clone RP23-16108, complete sequence.: 3.1
Rat hippocampus; 250 mg/kg twice daily, AE000664 SEQ ID NO: 58
  Φ: Mouse TCR beta locus from bases 250554 to 501917 (section 2 of 3) of the complete sequence.: 2.8
Rat hippocampus; 250 mg/kg twice daily, AE000664 SEQ ID NO: 61
  Φ: Mouse TCR beta locus from bases 250554 to 501917 (section 2 of 3) of the complete sequence.: 2.5
Rat hippocampus; 250 mg/kg twice daily, AE000664 SEQ ID NO: 79
  Φ: Mouse TCR beta locus from bases 250554 to 501917 (section 2 of 3) of the complete sequence.: 2
Rat hippocampus; 250 mg/kg twice daily, AF076337 SEQ ID NO: 65
  Φ: Rat strain Long Evans shaker myelin basic protein (Mbp) gene, intron 3, interrupted by ETn retrotransposon.: 2.3
Rat hippocampus; 250 mg/kg twice daily, AF077847 SEQ ID NO: 70
  Φ: Mouse LDL receptor member LR3 mRNA, complete cds.: 2.2
Rat hippocampus; 250 mg/kg twice daily, AF109906 SEQ ID NO: 86
  Φ: Mouse MHC class III region RD gene, partial eds; Bf, C2, G9A, NG22, G9, HSP70, HSP70, HSC70t, and smRNP genes, complete cds; G7A gene, partial cds; and unknown genes.: 1.9
Rat hippocampus; 250 mg/kg twice daily, AF121351 SEQ ID NO: 71
  Φ: Mouse chromosome X clone BAC B22804, complete sequence.: 2.2
Rat hippocampus; 250 mg/kg twice daily, AF130357 SEQ ID NO: 97
  Φ: Mouse (Mus musculus domesticus) X chromosome region similar to Human DXS963E, complete sequence.: 1.8
Rat hippocampus; 250 mg/kg twice daily, AF 165887 SEQ ID NO: 111
  Φ: Rat cytosolic branch chain aminotransferase BCATc mRNA, partial cds.: −1.5
Rat hippocampus; 250 mg/kg twice daily, AF178845 SEQ ID NO: 102
  Φ: Rat calmodulin mRNA, complete cds.: −1.6
Rat hippocampus; 250 mg/kg twice daily, AF242432 SEQ ID NO: 80
  Φ: Mouse Naip3 gene, exon 1; neuronal apoptosis inhibitory protein 1 (Naip 1) and general transcription factor IIH polypeptide 2 (Gtf2h2) genes, complete cds.: 2
Rat hippocampus; 250 mg/kg twice daily, AF311213 SEQ ID NO: 67
  Φ: Mouse BAC 171m12 MESDC1 (Mesdc1) and MESDC2 (Mesdc2) genes, complete cds.: 2.3
Rat hippocampus; 250 mg/kg twice daily, AJ010709 SEQ ID NO: 93
  Φ: Rat gene encoding tyrosine aminotransferase.: 1.8
Rat hippocampus; 250 mg/kg twice daily, AJ238392 SEQ ID NO: 77
  Φ: Rat mRNA for Sulfotransferase K2.: 2
Rat hippocampus; 250 mg/kg twice daily, BAB15010 SEQ ID NO: 90
  Φ: unnamed protein product: 1.8
Rat hippocampus; 250 mg/kg twice daily, CAB70864 SEQ ID NO: 117
  Φ: hypothetical protein: −1.5
Rat hippocampus; 250 mg/kg twice daily, D10693 SEQ ID NO: 72
  Φ: Rat mRNA for histamine N-methyltransferase, complete cds.: 2.1
Rat hippocampus; 250 mg/kg twice daily, D17309 SEQ ID NO: 68
  Φ: Rat mRNA for delta-4-3-ketosteroid 5-beta-reductase, complete cds.: 2.2
Rat hippocampus; 250 mg/kg twice daily, D17614 SEQ ID NO: 109
  Φ: Rat mRNA for 14-3-3 protein theta-subtype, complete cds.: −1.5
Rat hippocampus; 250 mg/kg twice daily, D86949 SEQ ID NO: 95
  Φ: Mouse mRNA for plexin 2, complete cds.: 1.8
Rat hippocampus; 250 mg/kg twice daily, J03583 SEQ ID NO: 112
  Φ: Rat clathrin heavy chain mRNA, complete cds.: −1.5
Rat hippocampus; 250 mg/kg twice daily, K00512 SEQ ID NO: 99
  Φ: rat myelin basic protein (mbp) gene mrna.: −1.6
Rat hippocampus; 250 mg/kg twice daily, L19707 SEQ ID NO: 73
  Φ: Rat long terminal repeat DNA sequence.: 2.1
Rat hippocampus; 250 mg/kg twice daily, L27111 SEQ ID NO: 105
  Φ: Rat stress activated protein kinase alpha I mRNA, complete cds.: −1.5
Rat hippocampus; 250 mg/kg twice daily, M8 1475 SEQ ID NO: 114
  Φ: Murine phosphoprotein phosphatase mRNA, complete cds.: −1.5
Rat hippocampus; 250 mg/kg twice daily, M15442 SEQ ID NO: 103
  Φ: Mouse myelin proteolipid protein mRNA, complete cds.: −1.6
Rat hippocampus; 250 mg/kg twice daily, M25301 SEQ ID NO: 107
  Φ: Rat nuclear-encoded mitochondrial ATP synthase beta-subunit mRNA, 5′ end.: −1.5
Rat hippocampus; 250 mg/kg twice daily, M29275 SEQ ID NO: 98
  Φ: Rat calcincurin A mRNA, complete cds.: −1.7
Rat hippocampus; 250 mg/kg twice daily, M29302 SEQ ID NO: 81
  Φ: Rat senescence marker protein 2B gene, exons 1 and 2.: 1.9
Rat hippocampus; 250 mg/kg twice daily, M34043 SEQ ID NO: 104
  Φ: Rat thymosin beta-4 mRNA, complete cds.: −1.5
Rat hippocampus; 250 mg/kg twice daily, M57718 SEQ ID NO: 64
  Φ: Rat cytochrome P450 IV A1 (CYP4A1) gene, complete cds.: 2.4
Rat hippocampus; 250 mg/kg twice daily, M60824 SEQ ID NO: 66
  Φ: Rat (LxRN3) LINE 1 repeat element, ORF II.: 2.3
Rat hippocampus; 250 mg/kg twice daily, M62642 SEQ ID NO: 84
  Φ: Rat (clone pRHx1) hemopexin mRNA, complete cds.: 1.9
Rat hippocampus; 250 mg/kg twice daily, M64393 SEQ ID NO: 69
  Φ: Rat 3-alpha-hydroxysteroid dehydrogenase (3-alpha-HSD) mRNA, complete cds.: 2.2
Rat hippocampus; 250 mg/kg twice daily, M67496 SEQ ID NO: 74
  Φ: Rat kallikrein-binding protein (RKBP) gene.: 2.1
Rat hippocampus; 250 mg/kg twice daily, S51653 SEQ ID NO: 76
  Φ: {clone 6B1, intracisternal A-particle derived LTR fragment} [rats, Genomic, 208 nt].: 2.1
Rat hippocampus; 250 mg/kg twice daily, S74327 SEQ ID NO: 118
  Φ: {clone E512, estrogen induced gene} [rats, Sprague-Dawley, hypothalamus, mRNA Partial, 259 nt].: −1.5
Rat hippocampus; 250 mg/kg twice daily, U06273 SEQ ID NO: 59
  Φ: Rat Sprague-Dawley UDP-glucuronosyltransferase (UGT2B12) mRNA, complete cds.: 2.7
Rat hippocampus; 250 mg/kg twice daily, U06685 SEQ ID NO: 82
  Φ: Rat LEW/N clone D0N544 satellite DNA sequence.: 1.9
Rat hippocampus; 250 mg/kg twice daily, U23776 SEQ ID NO: 83
  Φ: Rat Eker rat-associated intracisternal-A-particle element.: 1.9
Rat hippocampus; 250 mg/kg twice daily, U23776 SEQ ID NO: 94
  Φ: Rat Eker rat-associated intracisternal-A-particle element.: 1.8
Rat hippocampus; 250 mg/kg twice daily, U48245 SEQ ID NO: 106
  Φ: Rat protein kinase C-binding protein NELL2 mRNA, complete cds.: −1.5
Rat hippocampus; 250 mg/kg twice daily, U84012 SEQ ID NO: 116
  Φ: Mouse hippocampal amyloid precursor protein mRNA, complete cds.: −1.5
Rat hippocampus; 250 mg/kg twice daily, X07648 SEQ ID NO: 101
  Φ: Rat mRNA for amyloidogenic glycoprotein (rAG), cognate of Human A4 amyloid precursor protein.: −1.6
Rat hippocampus; 250 mg/kg twice daily, X13833 SEQ ID NO: 113
  Φ: Rat CaMII gene, exon 1 (and joined cds).: −1.5
Rat hippocampus; 250 mg/kg twice daily, X52713 SEQ ID NO: 78
  Φ: Rat mRNA for Mx3 protein.: 2
Rat hippocampus; 250 mg/kg twice daily, X57277 SEQ ID NO: 115
  Φ: Mouse rac1 gene.: −1.5
Rat hippocampus; 250 mg/kg twice daily, X60767 SEQ ID NO: 92
  Φ: Rat mRNA for cdc2 promoter region.: 1.8
Rat hippocampus; 250 mg/kg twice daily, X61298 SEQ ID NO: 60
  Φ: Rat L1 retroposon/pseudogene; 3′ flank.: 2.6
Rat hippocampus; 250 mg/kg twice daily, X81839 SEQ ID NO: 108
  Φ: Rat mRNA for ubiquitin and ribosomal protein S27a.: −1.5
Rat hippocampus; 250 mg/kg twice daily, X82557 SEQ ID NO: 110
  Φ: Rat MAL protein gene and mRNA.: −1.5
Rat hippocampus; 250 mg/kg twice daily, X87900 SEQ ID NO: 100
  Φ: Rat mRNA for Myelin-associated/Oligodendrocytic Basic Protein-81.: −1.6
Rat hippocampus; 250 mg/kg twice daily, X99797 SEQ ID NO: 91
  Φ: Rat mRNA for Tsx gene.: 1.8
Rat hippocampus; 250 mg/kg valproate twice daily, vs vehicle, U87602 SEQ ID NO: 56
  Φ: Rat L1 retrotransposon mlvi2-rn14, 5′UTR and putative RNA binding protein 1 gene, partial cds.: 3.6
NBFL cell line
  change in expression level by RT-PCR: chromogranin B (CG-B): greater than 2 fold
  change in expression level by RT-PCR: dopa decarboxylase (DDC): greater than 2 fold
  change in expression level by RT-PCR: dopamine β-hydroxylase (DBH): greater than 2 fold
  change in expression level by RT-PCR: nidogoen (NID): greater than 2 fold
  change in expression level by RT-PCR: silver (SIL): greater than 2 fold
